# Source: ChEMBL document CHEMBL3097998, “Oxidative cleavage of DNA by pentamethine carbocyanine dyes irradiated with long-wavelength visible light” (Bioorg Med Chem Lett, 2014)
# Active and inactive are the calls of the source. No cut-off for these calls is given here.
# How the values were obtained:
# DNA [1] = test: Binding affinity to calf thymus DNA at 10 uM using sequential DNA addition followed by 15 mins incubation under dark condition by UV-visible spectroscopy; format: nucleic-acid assay; conditions: Bos taurus
# Escherichia coli [2] = test: Induction of Escherichia coli pUC19 DNA photocleavage assessed as conversion of supercoiled DNA to linear and nicked form of DNA at 10 uM treated for 60 mins followed by irradiation at 588 nm for 60 mins by agarose gel electrophoresis (reference value: 15%)
# DNA [3] = test: Binding affinity to calf thymus DNA at 10 uM after 60 mins by UV-visible absorption spectra analysis; format: nucleic-acid assay; conditions: Bos taurus
# DNA [4] = test: Binding affinity to calf thymus DNA at 10 uM incubated for 60 mins under dark condition by fluorescence emission spectra analysis; format: nucleic-acid assay; conditions: Bos taurus
# Escherichia coli [5] = test: Induction of Escherichia coli pUC19 DNA photocleavage assessed as conversion of supercoiled DNA to linear and nicked form of DNA at 10 uM treated for 60 mins followed by irradiation at 575 nm for 60 mins by agarose gel electrophoresis (reference value: 6 +/- 2%)
# Escherichia coli [6] = test: Induction of Escherichia coli pUC19 DNA cleavage assessed as conversion of supercoiled DNA to linear and nicked form of DNA at 10 uM after 60 mins by agarose gel electrophoresis
# Escherichia coli [7] = test: Induction of Escherichia coli pUC19 DNA photocleavage at 10 uM treated for 60 mins followed by irradiation at 575 nm for 60 mins by agarose gel electrophoresis in presence of sodium azide
# Escherichia coli [8] = test: Induction of Escherichia coli pUC19 DNA photocleavage at 10 uM treated for 60 mins followed by irradiation at 575 nm for 60 mins by agarose gel electrophoresis in presence of sodium benzoate
# Escherichia coli [9] = test: Induction of Escherichia coli pUC19 DNA photocleavage assessed as conversion of supercoiled DNA to linear and nicked form of DNA at 10 uM treated for 60 mins followed by irradiation at 700 nm for 60 mins by agarose gel electrophoresis (reference value: 3%)
# Escherichia coli [10] = test: Induction of Escherichia coli pUC19 DNA photocleavage assessed as conversion of supercoiled DNA to linear and nicked form of DNA at 10 uM treated for 60 mins followed by irradiation at 623 nm for 60 mins by agarose gel electrophoresis (reference value: 10%)
# Escherichia coli [11] = test: Induction of Escherichia coli pUC19 DNA photocleavage assessed as conversion of supercoiled DNA to linear and nicked form of DNA after 60 mins followed by irradiation at 575 nm for 60 mins by agarose gel electrophoresis
SMILES,Activity (DNA [1]),Activity (Escherichia coli [2]) [%],Activity (DNA [3]),Activity (DNA [4]),Activity (Escherichia coli [5]) [%],Activity (Escherichia coli [6]) [%],Activity (Escherichia coli [7]),Activity (Escherichia coli [8]),Activity (Escherichia coli [9]) [%],Activity (Escherichia coli [10]) [%],Activity (Escherichia coli [11])
CC1(C)C(/C=C/C=C/C=C2/N(CCC[N+](C)(C)C)c3ccc4ccccc4c3C2(C)C)=[N+](CCC[N+](C)(C)C)c2ccc3ccccc3c21,Active,20,Active,Active,47,1,inactive,inactive,34,41,
CN1/C(=C/C=C(Br)/C=C/C2=[N+](C)c3ccc4ccccc4c3C2(C)C)C(C)(C)c2c1ccc1ccccc21,Active,55,Active,Active,86,3,inactive,inactive,49,46,Dose-dependent effect
CN1/C(=C/C=C/C=C/C2=[N+](C)c3ccc4ccccc4c3C2(C)C)C(C)(C)c2c1ccc1ccccc21,Active,25,Active,Active,59,2,inactive,inactive,18,29,
CN1/C(=C/C=C(Cl)/C=C/C2=[N+](C)c3ccc4ccccc4c3C2(C)C)C(C)(C)c2c1ccc1ccccc21,Active,46,Active,Active,83,2,inactive,inactive,33,42,Dose-dependent effect

# Second part, the compound after the results:
Activity (DNA [1]),Activity (Escherichia coli [2]) [%],Activity (DNA [3]),Activity (DNA [4]),Activity (Escherichia coli [5]) [%],Activity (Escherichia coli [6]) [%],Activity (Escherichia coli [7]),Activity (Escherichia coli [8]),Activity (Escherichia coli [9]) [%],Activity (Escherichia coli [10]) [%],Activity (Escherichia coli [11]),SMILES
,13,,Active,13,4,,,2,8,,CC1(C)C(/C=C/C(Cl)=C/C=C2/N(CCCc3ccccc3)c3ccc4ccccc4c3C2(C)C)=[N+](CCCc2ccccc2)c2ccc3ccccc3c21
Active,47,Active,Active,78,7,inactive,inactive,59,56,Dose-dependent effect,CC1(C)C(/C=C/C(Br)=C/C=C2/N(CCC[N+](C)(C)C)c3ccc4ccccc4c3C2(C)C)=[N+](CCC[N+](C)(C)C)c2ccc3ccccc3c21
Active,55,Active,Active,91,5,inactive,inactive,67,48,Dose-dependent effect,CC1(C)C(/C=C/C(Cl)=C/C=C2/N(CCC[N+](C)(C)C)c3ccc4ccccc4c3C2(C)C)=[N+](CCC[N+](C)(C)C)c2ccc3ccccc3c21
